According to US20210292410A1, “TREATMENT PARADIGM FOR AN ANTI-CD19 ANTIBODY AND VENETOCLAX COMBINATION TREATMENT” (MorphoSys AG, priority 2017, published 2021):

Columns and labels:
CYP17 [1] = experiment: Endocrine panel in prostate cancer patients treated with seviteronel or seviteronel and dexamethasone; format: in vivo, human; conditions: seviteronel 600 mg once daily, FIG. 7
Experimental: Males that fulfill the Inclusion Criteria captured in Table 1 were administered seviteronel (600 mg; 4×150 mg tablets) once daily until any of the criteria in Table 2 are met. Table 3 captures the clinical screening data and screening schedule for the various screens for each of the male subjects.
Males that fulfill the Inclusion Criteria captured in Table 1 were administered seviteronel (600 mg; 4×150 mg tablets) and dexamethasone (0.5 mg) once daily until any of the criteria in Table 2 are met. Table 3 captures the clinical screening data and screening schedule for the various screens for each of the male subjects.
(§1) Blood samples were collected for evaluation of steroid hormone changes as a pharmacodynamics indicator of CYP17 inhibition over time (e.g., DHEA, DHEA-S, androstenedione, testosterone, cortisol, corticosterone, progesterone, pregnenolone, estradiol, estrone and ACTH).

CYP17 [2] = experiment: Endocrine panel (progesterone) in ER+ breast cancer patients; format: in vivo, human; conditions: vs. patients treated with abiraterone and prednisone (Abi/Pred), FIG. 20
Experimental: Subjects that fulfill the Inclusion Criteria captured in Table 4 were administered seviteronel (600 mg for male subjects, 4×150 mg tablets; 450 mg for female subjects, 3×150 mg tablets) once daily until any of the criteria in Table 2 are met. Table 5 captures the clinical screening data and screening schedule for the various screens for each of the male subjects.
Subjects that fulfill the Inclusion Criteria captured in Table 4 were administered seviteronel (600 mg for male subjects, 4×150 mg tablets; 450 mg for female subjects, 3×150 mg tablets) and dexamethasone (0.5 mg) once daily until any of the criteria in Table 2 are met. Table 5 captures the clinical screening data and screening schedule for the various screens for each of the male subjects.
as §1

CC(C)[C@](O)(c1ccc2cc(OC(F)F)c(OC(F)F)cc2c1)c1c[nH]nn1 [SEVI]
endocrine profile: "up-stream" steroids (CYP17 [1]): limited increase
endocrine profile: ACTH (CYP17 [1]): modest ACTH increase
endocrine profile: androgen (CYP17 [1]): modest androgen decline
endocrine profile: cortisol (CYP17 [1]): modest cortisol decrease
increase in progesterone (CYP17 [2]): lack of clinically relevant increases in progesterone
